Test results published in patent publication US9765061B2, “Trail enhancers for the selective killing of cancer cells” (The Scripps Research Institute, priority 2013, dated 2017).

Key:
[1] = system: primary human hepatocytes; assay: Viability and apoptosis of primary human hepatocytes from normal donors; assay type: cell-based; details: hepatocytes from normal donors
Description: FIG. 8: Safety and pro-apoptotic. activity of (C12). Cells were incubated with TRAIL, (C12), […] (Bor) or a combination of TRAIL and (C12) or Bor as indicated, and cell viability (top panels) or the cleavage of PARP (bottom panels) was determined. (A) Lung cancer cell line A549. (B) Primary human hepatocytes from normal donor.
Therefore, to assess a potential utility of C12 for anti-cancer therapy, we compared the effects of these two compounds—(C12) and bartezomid (Bor)—on TRAIL-mediated apoptosis in cancerous A549 cells and primary human hepatocytes.
Cancer and normal cell culture. Lung cancer cell line A549 and colon cancer cell line HT29 were purchased from ATCC. Breast cancer cell line MDA-MB-468 was received from J. C. Reed (The Burnham Institute, La Jolla, Calif.). Cell lines were maintained in growth medium (GM): DMEM medium (4.5 g/l glucose) supplemented with 10% FBS (HyClone, Logan, Utah), L-glutamine, penicillin/streptomycin and nonessential ammo acids (Invitrogen, Carlsbad, Calif.). Normal human bronchial epithelial (NHBE) cells and normal human mammary epithelial (NHME) cells were obtained from Cambrex (East Rutherford, N.J.) and cultured as recommended by the manufacturer. Normal human colon smooth muscle cells were obtained from ScienCell Research Lab (San Diego, Calif.) and cultured as recommended by the manufacturer. Primary cultures of human hepatocytes (freshly plated; not cryopreserved) and culture medium were obtained from Celsis In Vitro Technologies (Baltimore, Md.). Upon receipt of the cells, the medium was gently aspirated from each well and replenished with InVitroGRO HI medium supplemented with Torpedo Antibiotic Mix (Celsis), and the plates were kept in a 5% CO2, at 37° C. in an incubator at saturating humidity. After 2-4 h, cells were stimulated as described in the text and FIG. legends.
(§1) Cytotoxicity was determined by using the XTT-based toxicology assay kit (Sigma, St. Louis, Miss.) in accordance with the manufacturer's instructions. For some experiments, to confirm the apoptotic nature of toxicity, cells were analyzed using protocols and instructions of the Annexin V-FITC apoptosis detection kit (Biovision, Mountain View, Calif.). In addition, caspase 3, 8 and 9 activities were determined by colorimetric assays (R&D System), and the data are expressed as fold increases compared to the values of untreated or control-treated cells (n=5).

cancer and normal cells = assay: XTT-based viability of cancer and normal cells grown 18 h (FIG. 12); assay type: cell-based; details: TRAIL alone or the same doses of C12 without TRAIL
Description: FIG. 12. (C12) promotes the TRAIL-mediated killing of cancer cells, a), c) Western blot analysis of PARP cleavage in cancer or normal cells treated for 3 h with TRAIL, (C12) or a combination of both, as indicated, b), d) XTT-based assay monitoring the viability of cancer and normal cells grown for 18 h in media containing TRAIL and the indicated doses of (C12). Cell survival was ˜100% in control samples (untreated cells) as well as in samples incubated with TRAIL alone or the same doses of (C12) without TRAIL.
Cancer and normal cell culture. Lung cancer cell line A549 and colon cancer cell line HT29 were purchased from ATCC. Breast cancer cell line MDA-MB-468 was received from J. C. Reed (The Burnham Institute, La Jolla, Calif.). […]
as §1

[2] = system: bone marrow-derived macrophages (BMDM); assay: Responses of bone marrow-derived macrophages to AHLs (toxicity, Western blot); assay type: cell-based, mouse
Description: FIG. 13. AHL-mediated inhibition of inflammation-induced NF-κB signaling is sufficient for rendering tumors susceptible to TRAIL-induced apoptosis. a) Western blot analysis of PARP cleavage in cancer cells stimulated for 3 h with TRAIL or its combination with different AHLs as indicated, b) Western blot analysis of PARP cleavage as well as phosphorylated forms of eIF2α and p38 in extracts from bone marrow-derived macrophages (BMDM) stimulated with (C12) or (3-N2), i.e., (S)-(3-N2), as indicated, c) Western blot analysis of PARP cleavage and temporal profiles of IκBα expression in BMDM extracts prepared after treatment with LPS or its combination with (C12) or (3-N2). d) Inhibitory effect of (C12) and its derivatives on LPS-induced TNF production in BMDM. e) Lung cancer cells were exposed to (3-N2) (10 μM), TRAIL (0.5 ng/ml), TNF (20 ng/ml) or their combinations as indicated. After 2 h, cell lysates were prepared and analyzed by Western blot for PARP cleavage, IκBα and actin.
Mice, bone marrow-derived macrophages and other cell culture, C57BL/6 mice were purchased from the Jackson Laboratory (Bar Harbor, Me.). Bone marrow-derived macrophages (BMDM) and murine embryonic fibroblasts (MEF) were prepared by using standard protocols that were approved by the TSRI Animal Care and Use Committee. L929/NCTC clone 929 (connective tissue, mouse) cell lines were purchased from ATCC (Manassas, Va.). MEFs and L929 cell line were maintained in GM (see above). BMDM were cultured in 70% GM and 30% L929 conditioned medium. In general, cells (˜60-70% confluence) were incubated in fresh medium for 12-14 h before stimulation.
Antibodies and Western blot analysis. Anti-eIF2α, phospho-eIF2α[…](p-eIF2α), p38, p-p38 (Thr180/Tyr132), p-RelA (Ser536), p-I κB ? 32/36), PARP 20 antibodies were purchased from Cell Signaling; anti-RelA, I κB α, IκBβ were from Santa Cruz Biotechnology. Cellular extracts were prepared and analyzed by Western blot assay as previously described.^E3
Cell stimulation. In all experiments, BMDM were stimulated with LPS (100 ng/ml), AHL (10-25 μM; usually BMDM and primary macrophages were stimulated by 25 μM of C12) or their combination as indicated in the figure legends. If not indicated, cancer and normal cells were stimulated with 40 ng/ml of TNFα, 20 ng/ml TRAIL and 10 μM (in case of cancer cells) or 25 μM (in case of normal cells) of AHL.

## CCCCCCCCCC(=O)CC(=O)N[C@H]1CCOC1=O [Compound 1, N-(3-oxo-dodecanoyl) homoserine lactone]
[1]
  toxicity to human hepatocytes, compound alone or in combination with TRAIL: practically healthy and intact
Cancer and normal cells
  Cell survival: ~100%
[2]; Western blot, FIG. 13b
  eIF2α phosphorylation in macrophages: induced eIF2α phosphorylation in a similar fashion
[2]; macrophages activated by LPS, FIG. 13c
  blocking LPS-induced re-synthesis of IκBα: equally effective
